According to patent US20220160872A1, “Drug Adsorbed Highly Porous Activated Carbon for Enhanced Drug Delivery” (THE BOARD OF TRUSTEES OF THE UNIVERSITY OF ILLINOIS, priority 2019, published 2022):

Key:
HSV-1 = assay: Prophylactic and therapeutic DECON treatment of HCEs with HSV-1 infection in vitro; type: cell-based; details: prophylactically added
Description: Cell monolayer was washed twice with PBS before whole media with required HSV infection was added.
To comprehensively test the efficacy of drug release and resulting antiviral activity of DECON particles, a prophylactic and therapeutic model of treatment was used on HCEs followed by HSV-1 infection in vitro.
Flow cytometry was conducted on the samples at 24 hpi showing the extent of cells infected with HSV-1 GFP (see FIG. 8C). FIG. 8d provides representative immunoblots for samples showing HSV-1 gB protein in comparison with GAPDH for HSV-1 infected HCEs at 24 hpi.

HSV-2 (333 strain) = assay: Murine model of vaginal HSV-2 infection; type: in vivo, BALB/c mice
Description: Naïve 4-week-old female BALB/c mice were purchased from Jackson Laboratory (Bar Harbor, USA) and housed in the university BRL for a period of one week for acclimatization before they were subcutaneously injected with 2 mg of medroxyprogesterone (Depo-Provera) per mice. On day 5 post injection, mice were intravaginally infected with 1×10^6 PFU HSV-2 (333 strain). Similar to the ocular model of infection, DECON was applied topically (intravaginally) on alternate days while ACV (50 mg/mL in PBS) was administered via an intraperitoneal injection. PBS was applied intravaginally as mock treatment for the control group. Vaginal swabs were collected using a Calgiswab (Calcium Alginate Mini-tip Urethro-Genital Swab, Puritan) dipped in OptiMEM (Gibco, USA). Images of the ano-genital region were taken on day 0 and day 7 post infection using a Carl Zeiss stereoscope at 7.5× magnification.
Experiments involving animals were performed under a UIC approved protocol ACC 14-091. The mice were monitored for weight loss and disease scores were recorded in a blinded fashion for 14 days. Sick mice were euthanized according to the IUCAC protocol followed by the collection of ocular/vaginal tissue and lymph nodes. Ocular wash and vaginal swabs were used to assess viral titers using a plaque assay.
With the success of topical ocular therapy with DECON, it was investigated whether this delivery platform was effective for vaginal HSV-2 infections as well. Naïve Balb/c mice were primed with medroxyprogestrone 5 days prior to intravaginal HSV-2 infection. Starting at day 1 post infection, mice were either treated with topical DECON or systemic ACV (5 mg/kg) by intraperitoneal injections […], DECON was administered intravaginally […]. The genital area was imaged using a stereoscope on days 0 and 7 to visualize the extent of damage done to the site of infection. […] This was observed by the phenotype of infection and analyzed by plaque assays from vaginal swabs. […] In the mock treated group, 60% of mice succumbed to death by day 14 post infection, while 20% of mice treated with systemic ACV and none of DECON treated mice succumbed to death (FIG. 5D).

HSV-1 (McKrae) = type: in vivo

| Structure (SMILES) | antiviral response (HSV-1) | mice succumbed to death (HSV-2 (333 strain); by day 14 post infection) [%] | inflammation of vaginal and anogenital area (HSV-2 (333 strain); compared to mock-treated mice) | viral titers, plaque assays from vaginal swabs (HSV-2 (333 strain); day 4 and day 7 post infection, DECON intravaginal, ACV 5 mg/kg intraperitoneal) | lymph node size (HSV-2 (333 strain); day 14 post infection) | mice succumbed to death (HSV-1 (McKrae); by day 15, topical treatment on alternate days) | viral replication / infection vs mock treated (HSV-1 (McKrae); topical, alternate days, ocular washes) |
| --- | --- | --- | --- | --- | --- | --- | --- |
| Nc1nc2c(ncn2COCCO)c(=O)[nH]1 [ACV, Acyclovir] | did not elicit a robust antiviral response | 20 | only slight inflammation | steady reduction in viral titers | little to no increase in size |  |  |
| O=c1[nH]c(=O)n([C@H]2C[C@H](O)[C@@H](CO)O2)cc1C(F)(F)F [TFT, trifluridine] |  |  |  |  |  | Up to 20% | did not show any significant reduction in viral replication |
